{"source": "patent US20230052403A1", "about": "“MIXTURES COMPRISING A SOLID CARRIER COMPRISING AN UREASE INHIBITOR AND A FURTHER SOLID CARRIER COMPRISING A NITRIFICATION INHIBITOR” (BASF SE, priority 2020, published 2023)", "system": "urease", "note": "Read-outs that look alike come from different tables or passages of the source.", "procedure": "The urea-stabilizing effect detected as the volatile NH3 losses from soil surface applied urea:\n176 g air dried soil is filled into 500 mL laboratory bottle, which is then be watered with de-ionized water up to 50% of its water holding capacity and incubated at room temperature (about 21° C.) for 24 h.\nUrea granules are evenly distributed on the soil in each bottle. Each granule is treated with 5 μL of the respective products, containg the compositions and mixtures of the invention in the appropriate concentrations. N amount applied was 80 mg per bottle.\nNH3 free air blows constantly at a rate of about 4 L per min. through the bottle which bubbles through a scrubber solution which is periodically renewed and analyzed for NH4^+ with an autoanalyzer.", "data": [{"smiles": "CCCCNP(N)(N)=S", "note": "[NBPT, N-(n-butyl)thiophosphoric acid triamide]", "values": [{"measurement": "reduction of NH3—N losses (UI effect), in words", "setting": "Piammon, UI and DMPP on the same granules", "value": "Nearly no reduction of NH3—N losses"}, {"measurement": "stability of the urease inhibitor, in words", "setting": "UI and DMPP on the same Piammon granules", "value": "destroyed by DMPP"}, {"measurement": "stability of the urease inhibitor, in words", "setting": "UI and DMPP on the same urea granules", "value": "destroyed by DMPP"}, {"measurement": "reduction of NH3—N losses (UI effect), in words", "setting": "UI applied on Piammon granules only as well as mixed with DMPSA-treated AS granules", "value": "Significant reduction of NH3—N losses"}, {"measurement": "reduction of NH3—N losses (UI effect), in words", "setting": "UI applied on urea granules only and mixed with DMPP-treated AS granules", "value": "Significant reduction of NH3—N losses"}, {"measurement": "reduction of NH3—N losses (UI effect), in words", "setting": "UI applied on urea granules only and mixed with DMPP-treated urea granules", "value": "Significant reduction of NH3—N losses"}, {"measurement": "reduction of NH3—N losses (UI effect), in words", "setting": "UI applied on urea granules only as well as mixed with DMPSA-treated urea granules", "value": "Significant reduction of NH3—N losses"}, {"measurement": "reduction of NH3—N losses (UI effect), in words", "setting": "urea, UI and DMPP on the same urea granules", "value": "No reduction of NH3—N losses"}]}]}
